Consider 34 compounds from ChEMBL document CHEMBL1128107, “Amino acid-derived piperidides as novel CCKB ligands with anxiolytic-like properties” (Bioorg Med Chem Lett, 1995).

The structures appear in SMILES notation. Calls of active or inactive are those of the source. The calls are words filed in the database; no cut-off is given here.

Assay [1] deals with T1, Cholecystokinin receptor type A (Cavia porcellus, UniProt Q63931).
T1 sequence (Q63931 whole entry): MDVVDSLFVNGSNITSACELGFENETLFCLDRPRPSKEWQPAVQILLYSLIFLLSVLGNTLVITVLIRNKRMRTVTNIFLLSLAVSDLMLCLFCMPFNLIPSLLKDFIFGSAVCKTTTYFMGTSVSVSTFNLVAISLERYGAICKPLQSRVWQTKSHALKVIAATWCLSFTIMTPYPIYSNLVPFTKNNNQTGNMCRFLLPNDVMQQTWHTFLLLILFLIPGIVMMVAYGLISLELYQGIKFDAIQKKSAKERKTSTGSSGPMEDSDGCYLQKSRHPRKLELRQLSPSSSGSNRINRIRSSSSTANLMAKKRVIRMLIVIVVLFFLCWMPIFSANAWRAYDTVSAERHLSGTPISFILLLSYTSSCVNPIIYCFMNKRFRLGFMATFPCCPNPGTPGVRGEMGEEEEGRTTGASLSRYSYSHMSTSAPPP
In words: Inhibitory activity towards binding of [125I]Bolton-Hunter-CCK-8 to CCKA receptor in guinea pig pancreatic tissue.

The subject of assay [2] is Mus musculus. In words: In vivo anxiolytic activity in mouse upon ip administration; significant activity. Type of assay: functional, organism-based.
The subject of the next assay is NCI-H345. In words: Ability to block CCK-8-induced calcium mobilization in NCI-H345 cells. The format is functional, cell-based. To be noted: Homo sapiens.
The test system of assay [3] is Mus musculus. In words: In vivo anxiolytic activity in mouse upon ip administration; less affinity and selectivity. The format is functional, organism-based.

`CC(C)C[C@H](NC(=O)[C@H](Cc1c[nH]c2ccccc12)NC(=O)OC(C)(C)C)C(=O)N1CCC(C(=O)c2ccccc2)CC1`: the IC50 in assay [1] is 640 nM.
Still for that read-out and setting: with `Cc1cccc(NC(=O)N[C@H](CSCc2ccccc2)C(=O)N2CCC(C(=O)c3ccccc3)CC2)c1` the figure was 1300 nM.
Consider `CC(=O)C1CCN(C(=O)[C@@H](COCc2ccccc2)NC(=O)Nc2cccc(C)c2)CC1`, for which the IC50 in assay [1] is 1300 nM.
Same read-out and setting: for `CC(C)(C)OC(=O)N[C@@H](Cc1c[nH]c2ccccc12)C(=O)N1CCC(C(=O)c2ccccc2)CC1` the value was 4500 nM.
Turning to `CC1(C)C2CCC1(COC(=O)N[C@](C)(Cc1c[nH]c3ccccc13)C(=O)NC[C@@H](NC(=O)CCC(=O)O)c1ccccc1)CC2`, in the assay on Mus musculus [2], the Activity entry was “significant activity”. In addition, in the assay on NCI-H345, the IC50 turned out to be 2 nM.
For `Cc1cccc(NC(=O)N[C@H](COC(=O)N2CCOCC2)C(=O)N2CCC(C(=O)c3ccccc3)CC2)c1`, the IC50 in assay [1] was determined as 1500 nM.
Consider `Cc1cccc(NC(=O)N[C@H](CCC(=O)OCc2ccccc2)C(=O)N2CCN(C(=O)c3ccccc3)CC2)c1`, for which the IC50 in assay [1] is 1500 nM.
In assay [1], `Cc1cccc(NC(=O)N[C@H](CS(=O)(=O)Cc2ccccc2)C(=O)N2CCC(C(=O)c3ccccc3)CC2)c1` returned an IC50 of 1100 nM.
The same measure, in the same setting: with `Cc1cccc(NC(=O)N[C@H](C[S+]([O-])Cc2ccccc2)C(=O)N2CCC(C(=O)c3ccccc3)CC2)c1` (stereo partly specified) the figure was 800 nM; with `Cc1cccc(NC(=O)N[C@H](CCC(=O)OCc2ccccc2)C(=O)N2CCC(NC(=O)c3ccccc3)CC2)c1`, 970 nM.
On the same count and under the same terms, for `Cc1cccc(NC(=O)N[C@H](COC(=O)Nc2ccccc2)C(=O)N2CCC(C(=O)c3ccccc3)CC2)c1` the value was 290 nM.
`Cc1cccc(NC(=O)N[C@H](COC(=O)N2CCCC2)C(=O)N2CCC(C(=O)c3ccccc3)CC2)c1`: the figures for the IC50 (in assay [1]; in the assay on NCI-H345) were 1400 nM and 220 nM, respectively. In the assay with Mus musculus [2], the outcome was Active.
For `Cc1cccc(NC(=O)N[C@H](CCCc2ccccc2)C(=O)N2CCC(C(=O)c3ccccc3)CC2)c1`, the IC50 in assay [1] came out at 1800 nM.
On the same count and under the same terms, with `Cc1cccc(NC(=O)N[C@H](COCc2ccccc2)C(=O)N2CCC(Cc3ccccc3)CC2)c1` the figure was 3400 nM.
Still for that read-out and setting: with `CC(Cc1c[nH]c2ccccc12)(NC(=O)OC1[C@H]2C[C@@H]3C[C@@H](C[C@H]1C3)C2)C(=O)N1CCC(C(=O)c2ccccc2)CC1` (stereo partly specified) the figure was 1700 nM.
Same read-out and setting: for `Cc1cccc(NC(=O)N[C@H](COC(=O)N(C)C)C(=O)N2CCC(C(=O)c3ccccc3)CC2)c1` the value was 1300 nM; for `Cc1cccc(NC(=O)N[C@H](CC(C)C)C(=O)N2CCC(C(=O)c3ccccc3)CC2)c1`, 2000 nM; for `Cc1cccc(NC(=O)N[C@H](CCc2ccccc2)C(=O)N2CCC(C(=O)c3ccccc3)CC2)c1`, 2200 nM.
In assay [1], `Cc1cccc(NC(=O)N[C@H](Cc2c[nH]c3ccccc23)C(=O)N2CCC(C(=O)c3ccccc3)CC2)c1` registered a concentration for half-maximal inhibition (IC50) of 1400 nM.
With `Cc1cccc(NC(=O)N[C@H](CCC(=O)OCc2ccccc2)C(=O)N2CCC(C(=O)Nc3ccccc3)CC2)c1`, the IC50 in assay [1] was found to be 690 nM.
As for `Cc1cccc(NC(=O)N[C@@H](CC(C)C)C(=O)N2CCC(C(=O)c3ccccc3)CC2)c1`, the IC50 in assay [1] was found to be 5200 nM.
As to `Cc1cccc(NC(=O)N[C@H](CCC(=O)N2CCCC2)C(=O)N2CCC(C(=O)c3ccccc3)CC2)c1`, the IC50 worked out at 1900 nM in assay [1] and 251 nM in the assay with NCI-H345. For the same compound, the Activity result in the assay with Mus musculus [3] is “Weak activity”.
`Cc1cccc(NC(=O)N[C@H](CCC(=O)OCc2ccccc2)C(=O)N2CCC(C(=O)c3ccccc3)CC2)c1`: the IC50 in assay [1] worked out at 900 nM.
On the same count and under the same terms, for `Cc1cccc(NC(=O)N[C@H](COCc2ccccc2)C(=O)N2CCC(C(=O)c3ccc(F)cc3)CC2)c1` the value was 420 nM.
The same measure, in the same setting: with `Cc1cccc(NC(=O)N[C@H](CC(=O)OCc2ccccc2)C(=O)N2CCC(C(=O)c3ccccc3)CC2)c1` the figure was 1300 nM.
The same measure, in the same setting: with `CCCC[C@@H](NC(=O)Nc1cccc(C)c1)C(=O)N1CCC(C(=O)c2ccccc2)CC1` the figure was 2500 nM.
As for `Cc1cccc(NC(=O)N[C@H](COC(=O)N2CCCC2)C(=O)N2CCC(C(=O)Nc3ccccc3)CC2)c1`, the IC50 in assay [1] was determined as 250 nM; with NCI-H345, 115 nM. For the same compound, in the assay on Mus musculus [2], the outcome was Active.
Regarding `CC(C)C[C@H](NC(=O)[C@H](Cc1c[nH]c2ccccc12)NC(=O)OC(C)(C)C)C(=O)N1CCC(Cc2ccccc2)CC1`, the IC50 in assay [1] is 200 nM.
The same measure, in the same setting: with `Cc1cccc(NC(=O)N[C@H](CCC(=O)O)C(=O)N2CCC(C(=O)c3ccccc3)CC2)c1` the figure was 1800 nM.
Still for that read-out and setting: for `Cc1cccc(NC(=O)N[C@H](COCc2ccccc2)C(=O)N2CCCC(C(=O)Nc3ccccc3)C2)c1` (stereo partly specified) the value was 2200 nM.
The same measure, in the same setting: with `Cc1cccc(NC(=O)N[C@H](COCc2ccccc2)C(=O)N2CCC(C(=O)Nc3ccccc3)CC2)c1` the figure was 500 nM; with `CC(C)C[C@H](NC(=O)OC(C)(C)C)C(=O)N1CCC(C(=O)c2ccccc2)CC1`, more than 2100 nM.
In turn, `Cc1cccc(NC(=O)N[C@@H](C(=O)N2CCC(C(=O)c3ccccc3)CC2)[C@@H](C)OCc2ccccc2)c1` had an IC50 in assay [1] of 1300 nM.
The same measure, in the same setting: with `Cc1cccc(NC(=O)N[C@H](COCc2ccccc2)C(=O)N2CCC(C(=O)c3ccccc3)CC2)c1` the figure was 2400 nM.
